Reference: the OPERA property sets (Mansouri et al. 2018)

In order of falling logP:
1. Clc1cccc(-c2cc(Cl)cc(Cl)c2)c1  5.81
2. O=CNCC#CCC(NC(=O)C(Cc1ccc2ccccc2c1)Cc1cccc2ccccc12)C(=O)NC(CC1CCCCC1)C(O)CC(=O)NCCN1CCOCC1 (stereo unspecified)  5.44
3. Clc1ccc(-c2ccc(Cl)cc2)cc1  5.23
4. CC(C)(C)C(COc1ccc(Br)cc1)OC(=S)n1ccnc1 (stereo unspecified)  5.11
5. Cc1c(C)c(C)c(C)c(C)c1C  5.11
6. c1ccc(C2(N3CCCCC3)CCCCC2)cc1  4.69
7. CC(C)(C)C(COc1ccc(-c2ccccc2)cc1)OC(=O)n1ccnc1 (stereo unspecified)  4.56
8. CCCCC(NC(Cc1ccccc1)C(=O)N1CCC(OCOC)CC1)C(=O)NC(CC1CCCCC1)C(O)CC(C(=O)NCCCN1CCOCC1)C(C)C (stereo unspecified)  4.5
9. CC(C)(C)C(COc1ccc(F)cc1)OC(=S)n1ccnc1 (stereo unspecified)  4.37
10. Clc1cccc2cccc(Cl)c12  4.3
11. CC(C)(C)c1ccc(C2CCCC(O)C2)c(O)c1 (stereo unspecified)  4.05
12. CCCCC(=O)OC1C(CO)OC(n2cnc3c(OC)ncnc32)C1OC(=O)CCCC (stereo unspecified)  3.83
13. O=C1c2ccccc2C(=O)C1c1ccc(C(F)(F)F)cc1  3.78
14. CC(C)OC(=O)C(C(=O)OC(C)C)=C1SC=CS1  3.75
15. Cc1ccc(C(=O)CCN2CCCCC2)c(C)c1  3.71
16. NC1C2CCC1c1cccc(C(F)(F)F)c1C2 (stereo unspecified)  3.65
17. OC(Cn1ccnc1)(c1cccc(Br)c1)c1ccc(F)cc1F (stereo unspecified)  3.6
18. Cc1ccc(C(=O)CCN2CCCCC2)cc1  3.55
19. CC(CCC(=O)NCc1ccccc1)C1CCC2C3C(O)CC4CC(O)CCC4(C)C3CC(O)C12C (stereo unspecified)  3.54
20. NC1C2CCC1c1ccc(C(F)(F)F)cc1C2 (stereo unspecified)  3.54
21. Cc1cccc(C)c1C(=O)CCN1CCCCC1  3.53
22. Cc1ccc2c(c1)C1CN(C)CCC1N2C(=O)C=Cc1ccccc1 (stereo unspecified)  3.49
23. CCNC1C2CCC(C2)C1c1ccccc1 (stereo unspecified)  3.2
24. CCCC(=NOCC)C1C(=O)CC2(CCSCC2)OC1=O (stereo unspecified)  2.9
25. CNC(=O)c1cccc(Oc2ccccc2)c1  2.86
26. O=C(O)COc1cc(Cl)cc(Cl)c1  2.84
27. COC(=O)NC1=NCC(c2cc(Br)ccc2Br)N1C (stereo unspecified)  2.77
28. CCOP(=O)(OCC)SCS(=O)(=O)C(C)(C)C  2.76
29. CCOC(=O)C1(c2ccccc2)CCN(C)CC1  2.72
30. CC(=O)c1ccc2c(c1)N(CCCN1CCN(CCO)CC1)c1ccccc1S2  2.62
31. COc1ccccc1/C=C/C(=O)O  2.54
32. C[C@@H]1O[C@@H](O[C@@H]2C=C3CC[C@@H]4[C@H](CC[C@]5(C)[C@@H](c6ccc(=O)oc6)CC[C@]45O)[C@@]3(C)CC2)[C@H](O)[C@H](O)[C@H]1O  2.48
33. CCCCCC(C)N (stereo unspecified)  2.4
34. CCCOC(=O)c1ccoc1  2.36
35. CCCN(C)CC(F)(F)F  2.18
36. NC(=O)OC1c2ccccc2C2CCCCC2C1OC(N)=O (stereo unspecified)  2.17
37. Cc1nc(N)sc1C(=O)CCN1CCCCC1  2.13
38. Cc1c(C(C)C)c(=O)n(-c2ccccc2)n1C  1.94
39. COC(=O)NC1=NCC(c2ccccc2Br)N1 (stereo unspecified)  1.85
40. CC1c2nc3ccccc3c(=O)n2CN1c1ccccc1 (stereo unspecified)  1.79
41. CCNP(=O)(OCC)ON=C(C#N)c1ccc([N+](=O)[O-])cc1 (stereo unspecified)  1.76
42. CN(C)C(=O)NCCCCn1nc(-c2ccccc2)ccc1=O  1.58
43. COC(=O)NC1=NCC(c2ccccc2)N1C (stereo unspecified)  1.57
44. O=C(O)C=Cc1ccc(O)cc1  1.46
45. CCCCCn1ccc(=O)c(O)c1C  1.24
46. CCCC(=O)N1CCCC1=O  1.18
47. Cc1cc(N)ccc1C(=O)O  1.14
48. Cc1[nH]cnc1CSCCNc1[nH]ccc1[N+](=O)[O-]  1.04
49. CC(=O)NC1=NC(=O)C(=Cc2ccc([N+](=O)[O-])o2)S1  1.03
50. N[C@H]1CCc2ccccc2[C@H]1O  0.86
51. O=c1c2c(nc3n1CCC3)CCCC2  0.83
52. COc1cc(NS(=O)(=O)c2ccc(N)cc2)ncn1  0.7
53. NS(=O)(=O)c1cc2c(cc1Cl)NC(C(Cl)Cl)NS2(=O)=O (stereo unspecified)  0.62
54. CCOC(=O)CCCO  0.43
55. CC1OC(=O)C(C)C(O)C1C (stereo unspecified)  0.36
56. Cc1cc(O)c(N(C)C)nn1  0.24
57. C=C1C(=O)OC2C1C(O)CC(C)C1CCC(=O)C12C (stereo unspecified)  0.23
58. CCc1[nH]ccc(=O)c1O  0.05
59. CC1CCCc2ncc(C(N)=O)c(=O)n21 (stereo unspecified)  0.04
60. O=c1[nH]c(=S)ccn1[C@H]1C=C[C@@H](CO)O1  -0.28
61. Nc1ccc(C(=O)O)c(N)c1  -0.31
62. Cn1c([N+](=O)[O-])cnc1COC(N)=O  -0.38
63. COCCn1ccc(=O)c(O)c1C  -0.41
64. CCc1c(O)c(=O)ccn1CCO  -0.66
65. NCCCCN  -0.7
66. Cc1c(O)c(=O)ccn1C  -0.77
67. CCNC(=O)CCn1ccc(=O)c(O)c1C  -0.82
68. CC(=O)Nc1n[nH]c(C)cc1=O  -0.89
69. CC(=O)OCC1=C(C(=O)O)N2C(=O)[C@@H](NC(=O)CSc3ccncc3)[C@H]2SC1  -1.15
70. Nc1ccn(C2OC(CO)CC2F)c(=O)n1 (stereo unspecified)  -1.18
71. OC[C@@H](O)[C@@H](O)[C@H](O)[C@@H](O)CO  -2.2
